From the supplement of paper PMC12463676, “Small-molecule dissolution of stress granules by redox modulation benefits ALS models” (Nature Chemical Biology, 2025)

Each target was assayed with NC(=O)CCCCC1CCSS1 [lipoamide] (assay: thermal stability z-score vs DMSO; higher = more thermally stabilized by treatment). Details: HeLa; lipoamide concentration 100 µM; arsenate co-treatment: 1 mM arsenate 1 h.
Experimental: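 Cellular thermal proteome profiling in HeLa cells. Cells were treated with 100 µM lipoamide for 1 h, with or without 1 mM arsenate for a further 1 h, then heated to ten temperatures (37-66.3 °C), and soluble protein was quantified by TMT mass spectrometry relative to 0.1% DMSO controls. The thermal stability score (sum of log2 fold changes minus the abundance score) was transformed to a z-score; mean of n = 3 experiments.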
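Further: each temperature applied for 3 min, abundance score taken as mean log2 fold change at the two lowest temperatures, z-score obtained by mean subtraction and division by SD.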

UniProt P48163, sequence (P48163 whole entry): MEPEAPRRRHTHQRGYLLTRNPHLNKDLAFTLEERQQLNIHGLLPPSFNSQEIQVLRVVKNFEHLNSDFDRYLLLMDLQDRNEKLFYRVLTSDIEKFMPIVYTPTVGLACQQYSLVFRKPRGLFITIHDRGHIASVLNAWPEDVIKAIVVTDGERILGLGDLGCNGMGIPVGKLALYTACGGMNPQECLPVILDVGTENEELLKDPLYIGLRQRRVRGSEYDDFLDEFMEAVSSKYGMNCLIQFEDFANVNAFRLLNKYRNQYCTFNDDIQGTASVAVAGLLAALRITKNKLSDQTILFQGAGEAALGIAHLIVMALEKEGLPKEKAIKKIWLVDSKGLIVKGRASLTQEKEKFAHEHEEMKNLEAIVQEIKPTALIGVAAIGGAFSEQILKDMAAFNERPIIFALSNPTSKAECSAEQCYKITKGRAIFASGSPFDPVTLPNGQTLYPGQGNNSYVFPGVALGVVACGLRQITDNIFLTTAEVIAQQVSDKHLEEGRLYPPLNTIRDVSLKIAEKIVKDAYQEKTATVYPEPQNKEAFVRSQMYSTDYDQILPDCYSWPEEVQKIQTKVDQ
UniProt Q92696, sequence (Q92696 whole entry): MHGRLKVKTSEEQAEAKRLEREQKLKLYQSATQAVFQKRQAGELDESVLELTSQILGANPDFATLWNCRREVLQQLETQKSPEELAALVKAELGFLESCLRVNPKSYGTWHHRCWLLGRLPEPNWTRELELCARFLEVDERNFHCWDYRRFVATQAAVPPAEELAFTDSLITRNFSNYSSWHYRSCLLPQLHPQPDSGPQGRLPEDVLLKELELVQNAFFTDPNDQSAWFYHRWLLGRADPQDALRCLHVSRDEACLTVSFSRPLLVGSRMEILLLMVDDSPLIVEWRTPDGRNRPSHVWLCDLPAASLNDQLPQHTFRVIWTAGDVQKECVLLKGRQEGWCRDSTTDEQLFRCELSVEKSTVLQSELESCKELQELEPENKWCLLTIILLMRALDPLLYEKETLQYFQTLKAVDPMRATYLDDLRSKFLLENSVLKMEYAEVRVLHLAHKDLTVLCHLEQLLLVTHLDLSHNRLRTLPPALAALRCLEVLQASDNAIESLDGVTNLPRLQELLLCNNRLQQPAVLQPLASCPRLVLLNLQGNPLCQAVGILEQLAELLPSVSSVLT
UniProt P04626, sequence (P04626 whole entry): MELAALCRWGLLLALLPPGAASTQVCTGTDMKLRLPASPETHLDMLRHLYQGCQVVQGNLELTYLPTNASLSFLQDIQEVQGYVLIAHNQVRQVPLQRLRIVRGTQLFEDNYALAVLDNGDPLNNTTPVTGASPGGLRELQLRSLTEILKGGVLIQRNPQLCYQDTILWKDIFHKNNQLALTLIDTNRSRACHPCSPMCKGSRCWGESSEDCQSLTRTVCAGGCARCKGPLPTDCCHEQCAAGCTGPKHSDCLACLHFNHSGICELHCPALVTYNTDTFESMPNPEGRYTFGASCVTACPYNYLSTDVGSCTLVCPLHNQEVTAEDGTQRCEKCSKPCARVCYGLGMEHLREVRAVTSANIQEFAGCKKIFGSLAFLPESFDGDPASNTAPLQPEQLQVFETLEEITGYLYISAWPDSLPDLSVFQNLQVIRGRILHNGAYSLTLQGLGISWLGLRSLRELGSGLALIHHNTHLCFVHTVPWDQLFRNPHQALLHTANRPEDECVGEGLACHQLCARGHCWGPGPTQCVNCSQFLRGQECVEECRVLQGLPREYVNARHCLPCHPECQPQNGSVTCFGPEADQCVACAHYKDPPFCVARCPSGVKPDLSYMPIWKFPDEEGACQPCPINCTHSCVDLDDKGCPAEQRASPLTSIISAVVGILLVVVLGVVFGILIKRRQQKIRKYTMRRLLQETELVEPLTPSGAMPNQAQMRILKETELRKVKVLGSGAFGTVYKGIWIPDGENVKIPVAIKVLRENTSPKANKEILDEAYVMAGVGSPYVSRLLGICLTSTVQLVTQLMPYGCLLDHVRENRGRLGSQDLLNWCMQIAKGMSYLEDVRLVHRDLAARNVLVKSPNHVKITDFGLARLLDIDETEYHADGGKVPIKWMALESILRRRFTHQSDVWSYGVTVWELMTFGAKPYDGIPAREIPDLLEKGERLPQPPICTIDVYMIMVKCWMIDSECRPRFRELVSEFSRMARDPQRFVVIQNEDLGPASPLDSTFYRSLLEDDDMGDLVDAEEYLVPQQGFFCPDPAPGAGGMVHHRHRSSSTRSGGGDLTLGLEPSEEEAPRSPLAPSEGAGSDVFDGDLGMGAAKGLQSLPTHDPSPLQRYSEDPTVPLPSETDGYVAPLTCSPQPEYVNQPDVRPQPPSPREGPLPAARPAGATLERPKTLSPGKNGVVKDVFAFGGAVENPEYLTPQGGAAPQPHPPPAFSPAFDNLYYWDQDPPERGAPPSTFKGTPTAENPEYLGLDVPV
UniProt Q9Y4K4, sequence (Q9Y4K4 whole entry, looked up): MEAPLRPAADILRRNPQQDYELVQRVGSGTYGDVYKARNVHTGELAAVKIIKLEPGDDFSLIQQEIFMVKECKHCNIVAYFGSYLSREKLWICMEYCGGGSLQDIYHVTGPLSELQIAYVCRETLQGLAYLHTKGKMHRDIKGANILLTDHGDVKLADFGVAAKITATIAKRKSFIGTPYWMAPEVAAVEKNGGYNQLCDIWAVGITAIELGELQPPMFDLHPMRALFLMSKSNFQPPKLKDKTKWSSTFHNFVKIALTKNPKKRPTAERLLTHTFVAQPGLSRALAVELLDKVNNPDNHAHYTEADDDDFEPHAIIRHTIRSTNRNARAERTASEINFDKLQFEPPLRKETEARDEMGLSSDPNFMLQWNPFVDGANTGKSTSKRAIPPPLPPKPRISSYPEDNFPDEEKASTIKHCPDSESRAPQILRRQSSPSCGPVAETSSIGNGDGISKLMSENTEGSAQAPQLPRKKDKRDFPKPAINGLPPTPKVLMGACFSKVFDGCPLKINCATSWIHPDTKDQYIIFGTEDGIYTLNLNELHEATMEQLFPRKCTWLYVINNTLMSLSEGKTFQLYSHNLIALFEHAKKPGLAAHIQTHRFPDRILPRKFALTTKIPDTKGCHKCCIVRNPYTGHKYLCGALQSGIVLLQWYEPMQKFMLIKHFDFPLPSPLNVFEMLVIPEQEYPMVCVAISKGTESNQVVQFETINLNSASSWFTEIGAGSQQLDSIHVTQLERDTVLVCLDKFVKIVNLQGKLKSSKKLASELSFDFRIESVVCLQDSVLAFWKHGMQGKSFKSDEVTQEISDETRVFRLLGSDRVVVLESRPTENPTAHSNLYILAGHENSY
UniProt Q03111, sequence (Q03111 whole entry): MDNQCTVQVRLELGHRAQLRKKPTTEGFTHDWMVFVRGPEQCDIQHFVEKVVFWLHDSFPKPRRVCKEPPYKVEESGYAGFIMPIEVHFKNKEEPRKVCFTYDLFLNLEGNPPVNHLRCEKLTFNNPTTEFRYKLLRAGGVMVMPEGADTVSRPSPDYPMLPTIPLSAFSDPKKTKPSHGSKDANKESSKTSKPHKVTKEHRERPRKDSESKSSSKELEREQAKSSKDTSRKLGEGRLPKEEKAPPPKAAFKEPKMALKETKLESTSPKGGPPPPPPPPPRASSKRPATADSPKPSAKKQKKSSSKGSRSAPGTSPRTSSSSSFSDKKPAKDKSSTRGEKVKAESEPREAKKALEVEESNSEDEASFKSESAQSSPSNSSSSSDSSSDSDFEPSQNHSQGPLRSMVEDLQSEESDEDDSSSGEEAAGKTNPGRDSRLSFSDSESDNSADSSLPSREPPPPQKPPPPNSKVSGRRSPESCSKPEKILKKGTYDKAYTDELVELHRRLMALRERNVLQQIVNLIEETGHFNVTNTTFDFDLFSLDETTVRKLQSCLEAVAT
UniProt O75818, sequence (O75818 whole entry): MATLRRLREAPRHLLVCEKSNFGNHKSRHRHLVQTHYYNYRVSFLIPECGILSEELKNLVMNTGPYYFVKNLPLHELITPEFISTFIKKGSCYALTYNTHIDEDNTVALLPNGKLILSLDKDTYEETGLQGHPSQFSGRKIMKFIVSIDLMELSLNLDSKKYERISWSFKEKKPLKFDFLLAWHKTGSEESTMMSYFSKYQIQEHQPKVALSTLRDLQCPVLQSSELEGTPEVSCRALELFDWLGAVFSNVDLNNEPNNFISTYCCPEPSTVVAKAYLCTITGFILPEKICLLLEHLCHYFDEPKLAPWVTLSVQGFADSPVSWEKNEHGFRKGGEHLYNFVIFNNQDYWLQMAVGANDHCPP
UniProt Q6IA69, sequence (Q6IA69 whole entry): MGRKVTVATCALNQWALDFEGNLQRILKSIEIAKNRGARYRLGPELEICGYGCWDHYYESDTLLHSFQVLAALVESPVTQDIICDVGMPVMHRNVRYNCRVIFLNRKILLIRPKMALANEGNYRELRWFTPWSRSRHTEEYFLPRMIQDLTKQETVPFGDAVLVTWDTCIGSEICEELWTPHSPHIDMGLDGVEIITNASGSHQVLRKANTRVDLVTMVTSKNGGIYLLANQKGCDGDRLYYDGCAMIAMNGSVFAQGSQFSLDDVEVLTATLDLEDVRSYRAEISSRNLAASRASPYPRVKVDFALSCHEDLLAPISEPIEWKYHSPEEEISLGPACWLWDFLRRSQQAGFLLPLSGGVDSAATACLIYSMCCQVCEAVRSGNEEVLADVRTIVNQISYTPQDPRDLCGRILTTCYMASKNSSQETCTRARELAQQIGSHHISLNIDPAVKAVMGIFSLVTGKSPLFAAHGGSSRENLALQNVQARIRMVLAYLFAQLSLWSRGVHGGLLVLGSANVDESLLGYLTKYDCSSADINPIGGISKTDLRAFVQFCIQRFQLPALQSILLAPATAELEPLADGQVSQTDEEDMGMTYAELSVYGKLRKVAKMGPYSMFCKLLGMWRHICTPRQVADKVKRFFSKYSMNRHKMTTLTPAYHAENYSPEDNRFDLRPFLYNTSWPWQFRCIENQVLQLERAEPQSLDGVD
UniProt Q9NS69, sequence (Q9NS69 whole entry): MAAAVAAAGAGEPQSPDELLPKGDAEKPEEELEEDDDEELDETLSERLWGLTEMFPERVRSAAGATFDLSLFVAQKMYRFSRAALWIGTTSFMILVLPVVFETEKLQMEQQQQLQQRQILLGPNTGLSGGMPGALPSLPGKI

Which thermal stability z-score does the source give for MAP4K5 (UniProt Q9Y4K4) here?
Its thermal stability z-score is -0.212.

With CEP152 (UniProt O94986) as the target, how does the thermal stability z-score read?
Its thermal stability z-score is -0.185.

With PRKCSH (UniProt P14314) as the target, how does the thermal stability z-score read?
Its thermal stability z-score is -2.77.

With CENPV (UniProt Q7Z7K6) as the target, how does the thermal stability z-score read?
Its thermal stability z-score is 0.172.

With RPP40 (UniProt O75818) as the target, how does the thermal stability z-score read?
The thermal stability z-score was 0.705.

Which thermal stability z-score does the source give for BRE (UniProt Q9NXR7) here?
Its thermal stability z-score is 0.462.

MLLT1 (UniProt Q03111) was tested. Which thermal stability z-score did it give?
The thermal stability z-score was -0.182.

With LMNB2 (UniProt Q03252) as the target, how does the thermal stability z-score read?
The thermal stability z-score was 0.686.

Which thermal stability z-score does the source give for ZC3HAV1 (UniProt Q7Z2W4) here?
The thermal stability z-score was -0.627.

With RABGGTA (UniProt Q92696) as the target, how does the thermal stability z-score read?
Its thermal stability z-score is -0.0918.

With ARMT1 (UniProt Q9H993) as the target, how does the thermal stability z-score read?
Its thermal stability z-score is 0.0878.

SCYL1 (UniProt Q96KG9) was tested. Which thermal stability z-score did it give?
The thermal stability z-score was -0.269.

NOMO1 (UniProt Q15155) was tested. Which thermal stability z-score did it give?
The thermal stability z-score was -0.893.

Which thermal stability z-score does the source give for TOMM22 (UniProt Q9NS69) here?
Its thermal stability z-score is 0.165.

With PTP4A1 (UniProt Q93096) as the target, how does the thermal stability z-score read?
The thermal stability z-score was 1.33.

With MAPKAPK3 (UniProt Q16644) as the target, how does the thermal stability z-score read?
Its thermal stability z-score is -0.203.

CHKA (UniProt P35790) was tested. Which thermal stability z-score did it give?
Its thermal stability z-score is 0.498.

How did the thermal stability z-score turn out when HNRNPLL|HNRPLL was run?
Its thermal stability z-score is -0.126.

LTBR (UniProt P36941) was tested. Which thermal stability z-score did it give?
Its thermal stability z-score is -2.06.

With ATP11C (UniProt Q8NB49) as the target, how does the thermal stability z-score read?
The thermal stability z-score was -0.348.

For ME1 (UniProt P48163), which thermal stability z-score is on record?
Its thermal stability z-score is 0.408.

With PLEKHA2 (UniProt Q9HB19) as the target, how does the thermal stability z-score read?
The thermal stability z-score was -0.216.

Which thermal stability z-score does the source give for NADSYN1 (UniProt Q6IA69) here?
The thermal stability z-score was 0.995.

KIAA0319L (UniProt Q8IZA0) was tested. Which thermal stability z-score did it give?
Its thermal stability z-score is 0.936.

How did the thermal stability z-score turn out when GBAS (UniProt O75323) was run?
The thermal stability z-score was 0.0991.

MTOR (UniProt P42345) was tested. Which thermal stability z-score did it give?
The thermal stability z-score was 0.00431.

For GINS1 (UniProt Q14691), which thermal stability z-score is on record?
Its thermal stability z-score is -0.512.

With TGS1 (UniProt Q96RS0) as the target, how does the thermal stability z-score read?
Its thermal stability z-score is -0.109.

For GBA (UniProt P04062), which thermal stability z-score is on record?
Its thermal stability z-score is -0.361.

ERBB2 (UniProt P04626) was tested. Which thermal stability z-score did it give?
Its thermal stability z-score is 0.166.

How did the thermal stability z-score turn out when AARS2 (UniProt Q5JTZ9) was run?
The thermal stability z-score was -0.428.

Which thermal stability z-score does the source give for GFPT2 (UniProt O94808) here?
The thermal stability z-score was 0.344.

Which thermal stability z-score does the source give for FGFR1OP2 (UniProt Q9NVK5) here?
The thermal stability z-score was -0.0532.

INPP5J (UniProt Q15735) was tested. Which thermal stability z-score did it give?
Its thermal stability z-score is -0.307.

TXNRD1 (UniProt Q16881) was tested. Which thermal stability z-score did it give?
The thermal stability z-score was 1.24.

Which thermal stability z-score does the source give for AGPAT5 (UniProt Q9NUQ2) here?
Its thermal stability z-score is -0.478.

How did the thermal stability z-score turn out when SNX8 (UniProt Q9Y5X2) was run?
The thermal stability z-score was 1.1.

With MRPL15 (UniProt Q9P015) as the target, how does the thermal stability z-score read?
The thermal stability z-score was -0.144.

With RBBP5 (UniProt Q15291) as the target, how does the thermal stability z-score read?
Its thermal stability z-score is 1.23.

For SH3BGRL3 (UniProt Q9H299), which thermal stability z-score is on record?
The thermal stability z-score was -0.0209.

For LAMA1 (UniProt P25391), which thermal stability z-score is on record?
Its thermal stability z-score is -2.

With GGCT (UniProt O75223) as the target, how does the thermal stability z-score read?
The thermal stability z-score was 1.7.

How did the thermal stability z-score turn out when SLC16A1 (UniProt P53985) was run?
Its thermal stability z-score is 0.774.

With PPP2R5D (UniProt Q14738) as the target, how does the thermal stability z-score read?
The thermal stability z-score was -0.378.

Which thermal stability z-score does the source give for RUVBL1 (UniProt Q9Y265) here?
Its thermal stability z-score is -0.0828.

How did the thermal stability z-score turn out when OPLAH (UniProt O14841) was run?
The thermal stability z-score was -0.0343.

How did the thermal stability z-score turn out when GGCX (UniProt P38435) was run?
Its thermal stability z-score is -0.482.

For GNPDA1 (UniProt P46926), which thermal stability z-score is on record?
Its thermal stability z-score is 0.699.

CHMP2A (UniProt O43633) was tested. Which thermal stability z-score did it give?
The thermal stability z-score was -0.041.

How did the thermal stability z-score turn out when CCDC51 (UniProt Q96ER9) was run?
Its thermal stability z-score is -0.68.

How did the thermal stability z-score turn out when KIRREL (UniProt Q96J84) was run?
The thermal stability z-score was 0.0439.

For VPS26A (UniProt O75436), which thermal stability z-score is on record?
The thermal stability z-score was 0.178.

How did the thermal stability z-score turn out when HSPBP1 (UniProt Q9NZL4) was run?
The thermal stability z-score was -0.134.

With VANGL1 (UniProt Q8TAA9) as the target, how does the thermal stability z-score read?
The thermal stability z-score was 0.696.

How did the thermal stability z-score turn out when SNTB1 (UniProt Q13884) was run?
Its thermal stability z-score is -0.307.

DHX16 (UniProt O60231) was tested. Which thermal stability z-score did it give?
Its thermal stability z-score is -0.223.

How did the thermal stability z-score turn out when SART3 (UniProt Q15020) was run?
The thermal stability z-score was -0.326.

How did the thermal stability z-score turn out when CD58 (UniProt P19256) was run?
The thermal stability z-score was 0.0858.

LIMCH1 (UniProt Q9UPQ0) was tested. Which thermal stability z-score did it give?
Its thermal stability z-score is 0.0623.

For MAPRE3 (UniProt Q9UPY8), which thermal stability z-score is on record?
The thermal stability z-score was 0.142.

For TRUB2 (UniProt O95900), which thermal stability z-score is on record?
The thermal stability z-score was 0.00158.

With COBLL1 (UniProt Q53SF7) as the target, how does the thermal stability z-score read?
The thermal stability z-score was 0.248.

HABP4 (UniProt Q5JVS0) was tested. Which thermal stability z-score did it give?
The thermal stability z-score was 0.171.

With USP16 (UniProt Q9Y5T5) as the target, how does the thermal stability z-score read?
The thermal stability z-score was -0.544.

With TIMM21 (UniProt Q9BVV7) as the target, how does the thermal stability z-score read?
The thermal stability z-score was 0.0115.

For LPCAT3 (UniProt Q6P1A2), which thermal stability z-score is on record?
Its thermal stability z-score is 0.125.

TUBA1C (UniProt Q9BQE3) was tested. Which thermal stability z-score did it give?
The thermal stability z-score was -0.163.

Which thermal stability z-score does the source give for METTL10 (UniProt Q5JPI9) here?
Its thermal stability z-score is -0.0093.

Which thermal stability z-score does the source give for CRTC3 (UniProt Q6UUV7) here?
The thermal stability z-score was -0.316.

With ADAM9 (UniProt Q13443) as the target, how does the thermal stability z-score read?
The thermal stability z-score was -0.535.

With GCLC (UniProt P48506) as the target, how does the thermal stability z-score read?
The thermal stability z-score was 0.874.

Same assay, conditions: HeLa; lipoamide concentration 100 µM; arsenate co-treatment: none

For MAP4K5 (UniProt Q9Y4K4), which thermal stability z-score is on record?
Its thermal stability z-score is 0.00139.

How did the thermal stability z-score turn out when CEP152 (UniProt O94986) was run?
The thermal stability z-score was -0.184.

With PRKCSH (UniProt P14314) as the target, how does the thermal stability z-score read?
Its thermal stability z-score is -2.47.

Which thermal stability z-score does the source give for CENPV (UniProt Q7Z7K6) here?
The thermal stability z-score was 0.192.

Which thermal stability z-score does the source give for RPP40 (UniProt O75818) here?
The thermal stability z-score was -0.123.

BRE (UniProt Q9NXR7) was tested. Which thermal stability z-score did it give?
The thermal stability z-score was -0.15.

MLLT1 (UniProt Q03111) was tested. Which thermal stability z-score did it give?
The thermal stability z-score was -0.111.

For LMNB2 (UniProt Q03252), which thermal stability z-score is on record?
The thermal stability z-score was 0.0237.

With ZC3HAV1 (UniProt Q7Z2W4) as the target, how does the thermal stability z-score read?
Its thermal stability z-score is 0.183.

RABGGTA (UniProt Q92696) was tested. Which thermal stability z-score did it give?
Its thermal stability z-score is -0.138.

With ARMT1 (UniProt Q9H993) as the target, how does the thermal stability z-score read?
The thermal stability z-score was 0.255.

How did the thermal stability z-score turn out when SCYL1 (UniProt Q96KG9) was run?
The thermal stability z-score was -0.198.

With NOMO1 (UniProt Q15155) as the target, how does the thermal stability z-score read?
The thermal stability z-score was -1.83.

With TOMM22 (UniProt Q9NS69) as the target, how does the thermal stability z-score read?
Its thermal stability z-score is 0.384.

PTP4A1 (UniProt Q93096) was tested. Which thermal stability z-score did it give?
Its thermal stability z-score is 1.25.

MAPKAPK3 (UniProt Q16644) was tested. Which thermal stability z-score did it give?
The thermal stability z-score was -0.362.

CHKA (UniProt P35790) was tested. Which thermal stability z-score did it give?
Its thermal stability z-score is 0.357.

Which thermal stability z-score does the source give for HNRNPLL|HNRPLL here?
The thermal stability z-score was -0.082.

LTBR (UniProt P36941) was tested. Which thermal stability z-score did it give?
Its thermal stability z-score is -1.66.

For ATP11C (UniProt Q8NB49), which thermal stability z-score is on record?
Its thermal stability z-score is 0.254.

How did the thermal stability z-score turn out when ME1 (UniProt P48163) was run?
Its thermal stability z-score is 0.575.

PLEKHA2 (UniProt Q9HB19) was tested. Which thermal stability z-score did it give?
The thermal stability z-score was -0.168.

For NADSYN1 (UniProt Q6IA69), which thermal stability z-score is on record?
The thermal stability z-score was 0.788.

How did the thermal stability z-score turn out when KIAA0319L (UniProt Q8IZA0) was run?
Its thermal stability z-score is 0.43.

How did the thermal stability z-score turn out when GBAS (UniProt O75323) was run?
Its thermal stability z-score is 0.0331.

How did the thermal stability z-score turn out when MTOR (UniProt P42345) was run?
Its thermal stability z-score is 0.137.

Which thermal stability z-score does the source give for GINS1 (UniProt Q14691) here?
The thermal stability z-score was -0.399.

TGS1 (UniProt Q96RS0) was tested. Which thermal stability z-score did it give?
The thermal stability z-score was -0.175.

For GBA (UniProt P04062), which thermal stability z-score is on record?
Its thermal stability z-score is -0.352.

With ERBB2 (UniProt P04626) as the target, how does the thermal stability z-score read?
The thermal stability z-score was 0.0799.

For AARS2 (UniProt Q5JTZ9), which thermal stability z-score is on record?
Its thermal stability z-score is -0.143.

GFPT2 (UniProt O94808) was tested. Which thermal stability z-score did it give?
Its thermal stability z-score is -0.0258.

How did the thermal stability z-score turn out when FGFR1OP2 (UniProt Q9NVK5) was run?
Its thermal stability z-score is 0.0859.

Which thermal stability z-score does the source give for INPP5J (UniProt Q15735) here?
Its thermal stability z-score is -0.456.

TXNRD1 (UniProt Q16881) was tested. Which thermal stability z-score did it give?
Its thermal stability z-score is 1.25.
